Measured values: US12667572B2, “Tricyclic compounds useful in the treatment of cancer, autoimmune and inflammatory disorders” (SCHRÖDINGER, INC., priority 2021, dated 2026)

Target: T1, full-length MALT1 protein His-MALT1(1-824) (Homo sapiens, UniProt Q9UDY8)
T1 construct: full-length MALT1 protein His-MALT1(1-824); His (N); made in house; host or cells: baculovirus-infected insect cells
T1 sequence (Q9UDY8 1-824): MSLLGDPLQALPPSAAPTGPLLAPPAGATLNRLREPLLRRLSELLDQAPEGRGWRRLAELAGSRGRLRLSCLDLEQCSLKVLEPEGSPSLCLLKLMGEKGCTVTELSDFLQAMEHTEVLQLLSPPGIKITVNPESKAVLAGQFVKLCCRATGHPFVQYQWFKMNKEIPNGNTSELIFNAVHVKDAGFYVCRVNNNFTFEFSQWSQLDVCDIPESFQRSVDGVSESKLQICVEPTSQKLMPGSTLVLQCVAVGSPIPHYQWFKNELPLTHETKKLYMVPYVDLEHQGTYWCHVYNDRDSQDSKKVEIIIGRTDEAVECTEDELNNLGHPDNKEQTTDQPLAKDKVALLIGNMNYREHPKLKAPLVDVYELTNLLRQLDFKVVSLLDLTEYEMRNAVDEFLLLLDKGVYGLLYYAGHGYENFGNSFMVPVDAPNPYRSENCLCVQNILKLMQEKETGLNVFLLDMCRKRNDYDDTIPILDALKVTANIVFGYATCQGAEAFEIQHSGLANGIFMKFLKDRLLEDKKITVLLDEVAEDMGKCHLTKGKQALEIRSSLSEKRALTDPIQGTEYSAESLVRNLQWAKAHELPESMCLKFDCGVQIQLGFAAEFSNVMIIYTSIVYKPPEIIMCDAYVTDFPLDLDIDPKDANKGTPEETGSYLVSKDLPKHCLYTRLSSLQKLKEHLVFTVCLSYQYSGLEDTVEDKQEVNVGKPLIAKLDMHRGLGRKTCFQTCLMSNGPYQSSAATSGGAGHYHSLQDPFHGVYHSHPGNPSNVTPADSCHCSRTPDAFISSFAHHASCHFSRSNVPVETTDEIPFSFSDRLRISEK
Test: MALT1 protease assay, Assay 1 (2 nM MALT1, Ac-LRSR-AMC substrate)
Assay type: biochemical
Conditions: 2 nM MALT1, 50 μM Ac-LRSR-AMC, 2 h pre-incubation, 8 hr incubation at RT
Experimental: MALT1 protease activity was assessed in an in vitro assay using a tetrapeptide as substrate and full-length MALT1 protein His-MALT1(1-824) purified from baculovirus-infected insect cells. The tetrapeptide substrate is Ac-LRSR-AMC (SM Biochemicals) with Km measured at around 100 μM.
The final assay buffer includes 1 nM (Assay 2) or 2 nM (Assay 1) of MALT1 full-length protein, 50 μM Ac-LRSR-AMC substrate, 50 mM Tris pH 7.5, 600 mM Sodium Citrate, 1 mM DTT, 1 mM EDTA, and 0.05% BSA in 384-well plate format using black microtiter square well plates (Optiplate 384-F, Perkin Elmer).
Test compounds were dissolved in 100% DMSO at stock of 10 mM, with final DMSO concentration 0.1%. Test compounds were pre-incubated with MALT1 protein for 2 h at room temperature. Substrate was added after the pre-incubation and fluorescence signal was measured using Envision at excitation 355 nm and emission 460 nm after 8 hr incubation at RT. Increase in the assay signal was linear over this period and proportional with increase in the enzyme content.
The fluorescence units were transformed to percentage of remaining activity by using the high control (HC, median of fluorescence signal from wells containing MALT1 protein, substrate, and DMSO) and low control (LC, median of fluorescence signal from wells with substrate only) with the formula below: […]
IC50 and Hill coefficients were obtained using Graph Pad Prism (Graph Pad software, Inc, USA) with non-linear regression analysis.

Compound	IC50 [nM]
CC1(C)C[C@@H](C(=O)Nc2cnc(-n3nccn3)c(Cl)c2)c2cnc3cc(C(F)F)nn3c21 (single isomer, unassigned) [Example 24, N-(5-chloro-6-(2H-1,2,3-triazol-2-yl)pyridin-3-yl)-2-(difluoromethyl)-8,8-dimethyl-7,8-dihydro-6H-cyclopenta[e]pyrazolo[1,5-a]pyrimidine-6-carboxamide]	≥ 1000
Cc1cc2ncc3c(n2n1)C1(CC1)CC3C(=O)Nc1cnc(-n2nccn2)c(Cl)c1 (centres unmarked) [Example 18, N-(5-chloro-6-(2H-1,2,3-triazol-2-yl)pyridin-3-yl)-2-methyl-6,7-dihydrospiro[cyclopenta[e]pyrazolo[1,5-a]pyrimidine-8,1′-cyclopropane]-6-carboxamide]	100 to 1000
CC1(C)C[C@@H](C(=O)Nc2cnc(-n3nccn3)c(Cl)c2)c2cnc3cc(F)nn3c21 (single isomer, unassigned) [Example 32, N-(5-chloro-6-(2H-1,2,3-triazol-2-yl)pyridin-3-yl)-2-fluoro-8,8-dimethyl-7,8-dihydro-6H-cyclopenta[e]pyrazolo[1,5-a]pyrimidine-6-carboxamide]	≥ 1000
CC1(C)C[C@@H](C(=O)Nc2cnc(-n3ncc(CO)n3)c(Cl)c2)c2cnc3cc(Cl)nn3c21 (single isomer, unassigned) [Example 30, 2-chloro-N-(5-chloro-6-(4-(hydroxymethyl)-2H-1,2,3-triazol-2-yl)pyridin-3-yl)-8,8-dimethyl-7,8-dihydro-6H-cyclopenta[e]pyrazolo[1,5-a]pyrimidine-6-carboxamide]	≥ 1000
Cc1cc2ncc3c(n2n1)C(C)(C)C[C@H]3C(=O)Nc1cnc(-n2nccn2)c(Cl)c1 (single isomer, unassigned) [Example 5, N-(5-chloro-6-(2H-1,2,3-triazol-2-yl)pyridin-3-yl)-2,8,8-trimethyl-7,8-dihydro-6H-cyclopenta[e]pyrazolo[1,5-a]pyrimidine-6-carboxamide]	≥ 1000
CC1(C)C[C@@H](C(=O)Nc2cnc(-n3cc(C#N)cn3)c(Cl)c2)c2cnc3cc(Cl)nn3c21 (single isomer, unassigned) [Example 14, 2-chloro-N-(5-chloro-6-(4-cyano-1H-pyrazol-1-yl)pyridin-3-yl)-8,8-dimethyl-7,8-dihydro-6H-cyclopenta[e]pyrazolo[1,5-a]pyrimidine-6-carboxamide]	≥ 1000
CC1(C)CC(C(=O)Nc2cnc(-n3nccn3)c(Cl)c2)c2ccc3cc(O)nn3c21 (centres unmarked) [Example 41, N-(5-chloro-6-(2H-1,2,3-triazol-2-yl)pyridin-3-yl)-2-hydroxy-8,8-dimethyl-7,8-dihydro-6H-cyclopenta[e]pyrazolo[1,5-a]pyridine-6-carboxamide]	100 to 1000
CC1(C)C[C@@H](C(=O)Nc2cnc(-n3nccn3)c(Cl)c2)c2cnc3cc(C#N)nn3c21 (single isomer, unassigned) [Example 3, N-(5-chloro-6-(2H-1,2,3-triazol-2-yl)pyridin-3-yl)-2-cyano-8,8-dimethyl-7,8-dihydro-6H-cyclopenta[e]pyrazolo[1,5-a]pyrimidine-6-carboxamide]	≥ 1000
CC1(C)CC(C(=O)Nc2cnc(-n3nccn3)c(Cl)c2)c2cnc3cc(C(F)(F)F)nn3c21 (centres unmarked) [Example 40, N-(5-chloro-6-(2H-1,2,3-triazol-2-yl)pyridin-3-yl)-8,8-dimethyl-2-(trifluoromethyl)-7,8-dihydro-6H-cyclopenta[e]pyrazolo[1,5-a]pyrimidine-6-carboxamide]	10 to 100
CC(C)(O)c1cnn(-c2ncc(NC(=O)C3CC(C)(C)c4c3cnc3cc(Cl)nn43)cc2Cl)n1 (single isomer, unassigned) [Example 22, 2-chloro-N-(5-chloro-6-(4-(2-hydroxypropan-2-yl)-2H-1,2,3-triazol-2-yl)pyridin-3-yl)-8,8-dimethyl-7,8-dihydro-6H-cyclopenta[e]pyrazolo[1,5-a]pyrimidine-6-carboxamide]	100 to 1000
CC1(C)CCC(C(=O)Nc2cnc(-n3nccn3)c(Cl)c2)c2cnc3cc(Cl)nn3c21 (centres unmarked) [Example 7, 2-chloro-N-(5-chloro-6-(2H-1,2,3-triazol-2-yl)pyridin-3-yl)-9,9-dimethyl-6,7,8,9-tetrahydropyrazolo[1,5-a]quinazoline-6-carboxamide]	10 to 100

The next lines start with the values.

IC50 [nM]	Compound
≥ 1000	CC1(C)C[C@@H](C(=O)Nc2cnc([C@@H]3CCCO3)c(Cl)c2)c2cnc3cc(Cl)nn3c21 (single isomer, unassigned) [Example 26, 2-chloro-N-(5-chloro-6-(tetrahydrofuran-2-yl)pyridin-3-yl)-8,8-dimethyl-7,8-dihydro-6H-cyclopenta[e]pyrazolo[1,5-a]pyrimidine-6-carboxamide]
≥ 1000	CC1(C)C[C@@H](C(=O)Nc2cnc(N3CCCC3)c(Cl)c2)c2cnc3cc(Cl)nn3c21 (single isomer, unassigned) [Example 16, 2-chloro-N-(5-chloro-6-(pyrrolidin-1-yl)pyridin-3-yl)-8,8-dimethyl-7,8-dihydro-6H-cyclopenta[e]pyrazolo[1,5-a]pyrimidine-6-carboxamide]
100 to 1000	CC1(C)CC(C(=O)Nc2cnc(-n3nccn3)c(Cl)c2)c2cnc3cc(Cl)nn3c21 (single isomer, unassigned) [Example 1, 2-chloro-N-(5-chloro-6-(2H-1,2,3-triazol-2-yl)pyridin-3-yl)-8,8-dimethyl-7,8-dihydro-6H-cyclopenta[e]pyrazolo[1,5-a]pyrimidine-6-carboxamide]
≥ 1000	Cn1ccc(-c2ncc(NC(=O)[C@@H]3CC(C)(C)c4c3cnc3cc(Cl)nn43)cc2Cl)n1 (single isomer, unassigned) [Example 10, 2-chloro-N-(5-chloro-6-(1-methyl-1H-pyrazol-3-yl)pyridin-3-yl)-8,8-dimethyl-7,8-dihydro-6H-cyclopenta[e]pyrazolo[1,5-a]pyrimidine-6-carboxamide]
100 to 1000	CC1(C)CC(C(=O)Nc2cnc(-n3cc(C#N)cn3)c(Cl)c2)c2cnc3cc(Cl)nn3c21 (single isomer, unassigned) [Example 15, 2-chloro-N-(5-chloro-6-(4-cyano-1H-pyrazol-1-yl)pyridin-3-yl)-8,8-dimethyl-7,8-dihydro-6H-cyclopenta[e]pyrazolo[1,5-a]pyrimidine-6-carboxamide]
≥ 1000	CC1(C)C[C@@H](C(=O)Nc2cnc(-n3cccn3)c(Cl)c2)c2cnc3cc(Cl)nn3c21 (single isomer, unassigned) [Example 12, 2-chloro-N-(5-chloro-6-(1H-pyrazol-1-yl)pyridin-3-yl)-8,8-dimethyl-7,8-dihydro-6H-cyclopenta[e]pyrazolo[1,5-a]pyrimidine-6-carboxamide]
10 to 100	CC1(C)C[C@H](C(=O)Nc2cnc(N3CCCC3)c(Cl)c2)c2cnc3cc(Cl)nn3c21 (single isomer, unassigned) [Example 17, 2-chloro-N-(5-chloro-6-(pyrrolidin-1-yl)pyridin-3-yl)-8,8-dimethyl-7,8-dihydro-6H-cyclopenta[e]pyrazolo[1,5-a]pyrimidine-6-carboxamide]
≥ 1000	CC1(C)C[C@@H](C(=O)Nc2cnc([C@H]3CCCO3)c(Cl)c2)c2cnc3cc(Cl)nn3c21 (single isomer, unassigned) [Example 27, 2-chloro-N-(5-chloro-6-(tetrahydrofuran-2-yl)pyridin-3-yl)-8,8-dimethyl-7,8-dihydro-6H-cyclopenta[e]pyrazolo[1,5-a]pyrimidine-6-carboxamide]
≥ 1000	Cn1cnc(-c2ncc(NC(=O)[C@@H]3CC(C)(C)c4c3cnc3cc(Cl)nn43)cc2Cl)c1 (single isomer, unassigned) [Example 34, 2-chloro-N-(5-chloro-6-(1-methyl-1H-imidazol-4-yl)pyridin-3-yl)-8,8-dimethyl-7,8-dihydro-6H-cyclopenta[e]pyrazolo[1,5-a]pyrimidine-6-carboxamide]
